{"source": "patent US8822520B2", "about": "“Substituted bicyclic HCV inhibitors” (Presidio Pharmaceuticals, Inc., priority 2010, dated 2014)"}
{"test_system": "HCV genotype 1b replicon in Huh 7 cells (HCV 1b_Huh-Luc/Neo-ET cell line)", "test": "HCV replicon assay (luciferase readout)", "assay_type": "cell-based", "settings": "Hepatitis C virus, Huh-7, 72 h, read-out: Inhibition of HCV genotype lb", "protocol": "(§1) Biological activity of the compounds of the invention was determined using an HCV replicon assay. The HCV 1b_Huh-Luc/Neo-ET cell line persistently expressing a bicistronic genotype 1b replicon in Huh 7 cells was obtained from ReBLikon GMBH. This cell line was used to test compound inhibition using luciferase enzyme activity readout as a measurement of compound inhibition of replicon levels.\n(§2) On Day 1 (the day after plating cells), each compound is added in triplicate to the cells. Plates are incubated for 72 h prior to determining luciferase levels. Enzyme activity was measured using a Bright-Glo Kit (cat. number E2620) manufactured by Promega Corporation. The following equation was used to generate a percent control value for each compound. % Control=(Compound Luciferase Level/Control Luciferase Level)*100\n(§3) The EC50 value was determined using GraphPad Prism and the following equation: Y=Bottom asymptote+(Top asymptote−Bottom asymptote)/(1+10^((Log EC50−X)*HillSlope))\n(§4) EC50 values of compounds are determined several times in the replicon assay to generate average EC50 values.", "units": {"EC50": "nM"}}
{"smiles": "COCCOc1cc(-c2cnc([C@@H]3CCCN3C(=O)[C@@H](NC(=O)OC)C(C)C)[nH]2)ccc1-c1ccc(-c2cnc([C@@H]3CCCN3C(=O)[C@@H](NC(=O)OC)C(C)C)[nH]2)cc1", "note": "[Compound 52]", "EC50": "< 1"}
{"smiles": "COCCOc1cc(-c2cnc([C@@H]3CCCN3C(=O)[C@H](COC)NC(=O)OC)[nH]2)ccc1-c1ccc(-c2cnc([C@@H]3CCCN3C(=O)[C@H](COC)NC(=O)OC)[nH]2)cc1OCCOC", "note": "[Compound 75]", "EC50": "1 to 9.9"}
{"smiles": "COCCOc1cc(-c2cnc([C@@H]3CCCN3C(=O)[C@@H](NC(=O)OC)C(C)C)[nH]2)ccc1-c1ccc(-c2cnc([C@@H]3CCCN3C(=O)[C@H](NC(=O)OC)c3ccsc3)[nH]2)cc1OCCOC", "note": "[Compound 88]", "EC50": "< 1"}
{"smiles": "COCCOc1cc(-c2cnc([C@@H]3CCCN3C(=O)[C@@H](NC(=O)OC)C(C)C)[nH]2)cc(OCCOC)c1-c1ccc(-c2cnc([C@@H]3CCCN3C(=O)[C@@H](NC(=O)OC)C(C)C)[nH]2)cc1", "note": "[Compound 92]", "EC50": "< 1"}
{"smiles": "COCCOc1cc(-c2ccc(-c3cnc([C@@H]4CCCN4C(=O)[C@@H](NC(=O)OC)C(C)C)[nH]3)c(OCCOC)c2)ccc1-c1cnc([C@@H]2CCCN2C(=O)[C@@H](NC(=O)OC)C(C)C)[nH]1", "note": "[Compound 54]", "EC50": "1 to 9.9"}
{"smiles": "COCCOc1c(-c2ccc(-c3cnc([C@@H]4C[C@@H](O)CN4C(=O)[C@@H](NC(=O)OC)C(C)C)[nH]3)cc2)ccc(-c2cnc([C@@H]3CCCN3C(=O)[C@@H](NC(=O)OC)C(C)C)[nH]2)c1OCCOC", "note": "[Compound 60]", "EC50": "< 1"}
{"smiles": "COCCOc1c(-c2ccc(-c3cnc([C@@H]4CCCCN4C(=O)[C@@H](NC(=O)OC)C(C)C)[nH]3)cc2)ccc(-c2cnc([C@@H]3CCCCN3C(=O)[C@@H](NC(=O)OC)C(C)C)[nH]2)c1OCCOC", "note": "[Compound 91]", "EC50": "1 to 9.9"}
{"smiles": "COCCOc1cc(-c2cnc([C@@H]3CCCN3C(=O)[C@H](NS(C)(=O)=O)c3ccccc3)[nH]2)ccc1-c1ccc(-c2cnc([C@@H]3CCCN3C(=O)[C@H](NS(C)(=O)=O)c3ccccc3)[nH]2)cc1OCCOC", "note": "[Compound 84]", "EC50": "1 to 9.9"}
{"smiles": "COCCOc1cc(-c2cnc([C@@H]3CCCN3C(=O)[C@H](NC(=O)OC)c3cccs3)[nH]2)ccc1-c1ccc(-c2cnc([C@@H]3CCCN3C(=O)[C@H](NC(=O)OC)c3cccs3)[nH]2)cc1OCCOC", "note": "[Compound 79]", "EC50": "< 1"}
{"smiles": "COCCOc1cc(-c2cnc([C@@H]3CCCN3C(=O)[C@H](C)NC(=O)OC)[nH]2)ccc1-c1ccc(-c2cnc([C@@H]3CCCN3C(=O)[C@@H](NC(=O)OC)C(C)C)[nH]2)cc1OCCOC", "note": "[Compound 86]", "EC50": "1 to 9.9"}
{"smiles": "COCCOc1cc(-c2cnc([C@@H]3CCCN3C(=O)[C@@H](NC(=O)OC)C(C)(C)C)[nH]2)ccc1-c1ccc(-c2cnc([C@@H]3CCCN3C(=O)[C@@H](NC(=O)OC)C(C)(C)C)[nH]2)cc1OCCOC", "note": "[Compound 76]", "EC50": "< 1"}
{"test_system": "HCV genotype 1b replicon in Huh 7 cells (HCV 1b_Huh-Luc/Neo-ET cell line)", "test": "HCV replicon assay (luciferase readout)", "assay_type": "cell-based", "settings": "Hepatitis C virus, Huh-7; Table 1; EC50 range class; replicon luciferase, 72 h incubation, average EC50; read-out: Inhibition of HCV genotype 1b", "protocol": "as §1, §2, §3, §4", "units": {"EC50": "nM"}}
{"smiles": "COCCOc1c(-c2ccc(-c3cnc([C@@H]4CCCN4C(=O)[C@@H](NC(=O)OC)C4CCCC4)[nH]3)cc2)ccc(-c2cnc([C@@H]3CCCN3C(=O)[C@@H](NC(=O)OC)C3CCCC3)[nH]2)c1OCCOC", "note": "[Compound 4]", "EC50": "< 1"}
{"smiles": "COCCOc1cc(-c2cnc([C@@H]3CCCN3C(=O)[C@@H](NC(=O)OC)C(C)C)[nH]2)ccc1-c1ccc(-c2cnc([C@@H]3CCCN3C(=O)[C@H](NC(=O)OC)c3ccccc3)[nH]2)cc1OCCOC", "note": "[Compound 37]", "EC50": "< 1"}
{"smiles": "COCCOc1cc(-c2cnc([C@@H]3CCCN3C(=O)[C@@H](NC(=O)OC)C3CCCC3)[nH]2)ccc1-c1ccc(-c2cnc([C@@H]3CCCN3C(=O)[C@@H](NC(=O)OC)C3CCCC3)[nH]2)cc1OCCOC", "note": "[Compound 8]", "EC50": "< 1"}
{"smiles": "COCCOc1cc(-c2cnc([C@@H]3CCCN3C(=O)[C@@H](NC(=O)OC)C3CCCCC3)[nH]2)ccc1-c1ccc(-c2cnc([C@@H]3CCCN3C(=O)[C@@H](NC(=O)OC)C3CCCCC3)[nH]2)cc1OCCOC", "note": "[Compound 9]", "EC50": "< 1"}
{"smiles": "CC[C@H](C)[C@H](NC(=O)OC)C(=O)N1CCC[C@H]1c1ncc(-c2ccc(-c3ccc(-c4cnc([C@@H]5CCCN5C(=O)[C@@H](NC(=O)OC)C(C)C)[nH]4)cc3)c(OCCOC)c2OCCOC)[nH]1", "note": "[Compound 19]", "EC50": "< 1"}
{"smiles": "CNC(=O)N[C@@H](C(=O)N1CCC[C@H]1c1ncc(-c2ccc(-c3ccc(-c4cnc([C@@H]5CCCN5C(=O)[C@H](NC(=O)NC)c5ccccc5)[nH]4)c(OCCOC)c3OCCOC)cc2)[nH]1)c1ccccc1", "note": "[Compound 24]", "EC50": "< 1"}
{"smiles": "COCCOc1cc(-c2cnc([C@@H]3CCCN3C(=O)[C@@H](NC(=O)OC)C(C)C)[nH]2)ccc1-c1ccc(-c2cnc([C@@H]3CCCN3C(=O)[C@@H](NC(=O)OC)[C@@H](C)OC)[nH]2)cc1OCCOC", "note": "[Compound 34]", "EC50": "1 to 9.9"}
{"smiles": "COCCOc1c(-c2ccc(-c3cnc([C@@H]4CCCN4C(=O)[C@H](C)NC(=O)OC)[nH]3)cc2)ccc(-c2cnc([C@@H]3CCCN3C(=O)[C@H](C)NC(=O)OC)[nH]2)c1OCCOC", "note": "[Compound 10]", "EC50": "< 1"}
{"smiles": "CC[C@H](C)C(NC(=O)OC)C(=O)N1CCC[C@H]1c1ncc(-c2ccc(-c3ccc(-c4cnc([C@@H]5CCCN5C(=O)[C@@H](NC(=O)OC)[C@@H](C)CC)[nH]4)c(OCCOC)c3OCCOC)cc2)[nH]1", "note": "(stereo partly shown) [Compound 3]", "EC50": "< 1"}
{"smiles": "COC(=O)N[C@H](C(=O)N1CCC[C@H]1c1ncc(-c2ccc3c(c2)OCCOCCOCCOCCOCCOc2cc-3ccc2-c2cnc([C@@H]3CCCN3C(=O)[C@@H](NC(=O)OC)C(C)C)[nH]2)[nH]1)C(C)C", "note": "[Compound 43]", "EC50": "1 to 9.9"}
{"smiles": "COCCOc1cc(-c2cnc([C@@H]3CCCN3C(=O)[C@H](NC(=O)OC)c3ccccc3)[nH]2)ccc1-c1ccc(-c2cnc([C@@H]3CCCN3C(=O)[C@H](NC(=O)OC)c3ccccc3)[nH]2)cc1OCCOC", "note": "[Compound 26]", "EC50": "< 1"}
{"smiles": "COCCOc1c(-c2ccc(-c3cnc([C@@H]4CCCN4C(=O)[C@@H](NC(=O)OC)C(C)C)[nH]3)cc2)ccc(-c2cnc([C@@H]3CCCN3C(=O)[C@@H](c3ccccc3)N(C)C)[nH]2)c1OCCOC", "note": "[Compound 33]", "EC50": "< 1"}
{"smiles": "COCCOc1c(-c2ccc(-c3cnc([C@@H]4CCCN4C(=O)[C@@H](c4ccccc4)N(C)C)[nH]3)cc2)ccc(-c2cnc([C@@H]3CCCN3C(=O)[C@@H](c3ccccc3)N(C)C)[nH]2)c1OCCOC", "note": "[Compound 15]", "EC50": "< 1"}
{"smiles": "COCCOc1cc(-c2cnc([C@@H]3CCCN3C(=O)C(NC(=O)OC)[C@@H](C)OC)[nH]2)ccc1-c1ccc(-c2cnc([C@@H]3CCCN3C(=O)C(NC(=O)OC)[C@@H](C)OC)[nH]2)cc1OCCOC", "note": "(stereo partly shown) [Compound 25]", "EC50": "1 to 9.9"}
{"smiles": "COCCOc1c(-c2ccc(-c3cnc([C@@H]4CCCN4C(=O)[C@@H](NC(=O)OC)C4CCOCC4)[nH]3)cc2)ccc(-c2cnc([C@@H]3CCCN3C(=O)[C@@H](NC(=O)OC)C3CCOCC3)[nH]2)c1OCCOC", "note": "[Compound 14]", "EC50": "1 to 9.9"}
{"smiles": "COCCOc1c(-c2ccc(-c3cnc([C@H](C)NC(=O)[C@@H](NC(=O)OC)C(C)C)[nH]3)cc2)ccc(-c2cnc([C@@H]3CCCN3C(=O)[C@@H](NC(=O)OC)C(C)C)[nH]2)c1OCCOC", "note": "[Compound 39]", "EC50": "1 to 9.9"}
{"smiles": "COC(=O)N[C@H](C(=O)N1CCC[C@H]1c1ncc(-c2ccc3cc2OCCOCCOCCOCCOCCOc2cc-3ccc2-c2cnc([C@@H]3CCCN3C(=O)[C@@H](NC(=O)OC)C(C)C)[nH]2)[nH]1)C(C)C", "note": "[Compound 42]", "EC50": "1 to 9.9"}
{"smiles": "COCCOc1c(-c2ccc(-c3cnc([C@@H]4CCCN4C(=O)[C@H](NC(=O)OC)c4ccccc4)[nH]3)cc2)ccc(-c2cnc([C@@H]3CCCN3C(=O)[C@H](NC(=O)OC)c3ccccc3)[nH]2)c1OCCOC", "note": "[Compound 20]", "EC50": "< 1"}
{"smiles": "COCCOc1cc(-c2cnc([C@@H]3CCCN3C(=O)[C@@H](NC(=O)OC)C(C)C)[nH]2)ccc1-c1ccc(-c2cnc([C@@H]3CCCN3C(=O)[C@@H](NC(=O)OC)C3CCCC3)[nH]2)cc1OCCOC", "note": "[Compound 36]", "EC50": "< 1"}
{"smiles": "COC(=O)N[C@H](C(=O)N1CCC[C@H]1c1ncc(-c2ccc3c(c2)OCCOCCOCCOc2cc(-c4cnc([C@@H]5CCCN5C(=O)[C@@H](NC(=O)OC)C(C)C)[nH]4)ccc2-3)[nH]1)C(C)C", "note": "[Compound 44]", "EC50": "1 to 9.9"}
{"smiles": "COCCOc1c(-c2ccc(-c3cnc([C@@H]4CCCN4C(=O)[C@H](NC(=O)OC)C(C)C)[nH]3)cc2)ccc(-c2cnc([C@@H]3CCCN3C(=O)[C@H](C)NC(=O)OC)[nH]2)c1OCCOC", "note": "[Compound 18]", "EC50": "1 to 9.9"}
{"smiles": "COCCOc1cc(-c2cnc([C@@H]3CCCN3C(=O)[C@H](C)NC(=O)OC)[nH]2)ccc1-c1ccc(-c2cnc([C@@H]3CCCN3C(=O)[C@H](C)NC(=O)OC)[nH]2)cc1OCCOC", "note": "[Compound 6]", "EC50": "10 to 999"}
{"smiles": "COCCOc1c(-c2ccc(-c3cnc([C@@H]4CCCN4C(=O)[C@H](NS(C)(=O)=O)c4ccccc4)[nH]3)cc2)ccc(-c2cnc([C@@H]3CCCN3C(=O)[C@H](NS(C)(=O)=O)c3ccccc3)[nH]2)c1OCCOC", "note": "[Compound 17]", "EC50": "< 1"}
{"smiles": "COCCOc1c(-c2ccc(-c3cnc([C@@H]4CCCN4C(=O)[C@@H](NC(=O)OC)C(C)C)[nH]3)cc2)ccc(-c2cnc([C@@H]3CCCN3C(=O)[C@@H](NC(=O)OC)C3CCCC3)[nH]2)c1OCCOC", "note": "[Compound 29]", "EC50": "< 1"}
{"smiles": "COCCOc1c(-c2ccc(-c3cnc([C@@H]4CCCN4C(=O)[C@H](NC(=O)OC)c4ccsc4)[nH]3)cc2)ccc(-c2cnc([C@@H]3CCCN3C(=O)[C@H](NC(=O)OC)c3ccsc3)[nH]2)c1OCCOC", "note": "[Compound 21]", "EC50": "< 1"}
{"smiles": "COCCOc1c(-c2ccc(-c3cnc([C@@H]4CCCN4C(=O)[C@H](NC(=O)OC)c4cccs4)[nH]3)cc2)ccc(-c2cnc([C@@H]3CCCN3C(=O)[C@H](NC(=O)OC)c3cccs3)[nH]2)c1OCCOC", "note": "[Compound 22]", "EC50": "< 1"}
